Results as given in patent publication US9187472B2 (AbbVie Inc., priority 2012, dated 2015).
pIC50: −log10 of the molar value.

Legend:
[1] = molecular target: NAMPT (human, recombinant, C-terminally His-tagged) (Homo sapiens, UniProt P43490); test: Time-Resolved Fluorescence Resonance Energy Transfer (TR-FRET) Binding Assay of NAMPT; settings: without substrates; 6.8 nM NAMPT, 200 nM probe, 3 hours equilibration
Procedure, shortened: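 In a displacement format, the nicotinamide-site tracer at 200 nM competed with test compound for 6.8 nM enzyme detected via 1 nM terbium anti-His antibody; incubation lasted 3 hours at room temperature in 50 mM HEPES pH 7.5, 100 mM NaCl. Normalized 520/495 nm emission ratios gave IC50 values.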

[2] = molecular target: NAMPT (Homo sapiens, UniProt P43490); test: TR-FRET Binding Assay of NAMPT with PRPP; settings: with 200 μM PRPP and 2.5 mM ATP; 2 nM NAMPT, 2 nM probe, 16 hours equilibration
Sequence of NAMPT (P43490 whole entry): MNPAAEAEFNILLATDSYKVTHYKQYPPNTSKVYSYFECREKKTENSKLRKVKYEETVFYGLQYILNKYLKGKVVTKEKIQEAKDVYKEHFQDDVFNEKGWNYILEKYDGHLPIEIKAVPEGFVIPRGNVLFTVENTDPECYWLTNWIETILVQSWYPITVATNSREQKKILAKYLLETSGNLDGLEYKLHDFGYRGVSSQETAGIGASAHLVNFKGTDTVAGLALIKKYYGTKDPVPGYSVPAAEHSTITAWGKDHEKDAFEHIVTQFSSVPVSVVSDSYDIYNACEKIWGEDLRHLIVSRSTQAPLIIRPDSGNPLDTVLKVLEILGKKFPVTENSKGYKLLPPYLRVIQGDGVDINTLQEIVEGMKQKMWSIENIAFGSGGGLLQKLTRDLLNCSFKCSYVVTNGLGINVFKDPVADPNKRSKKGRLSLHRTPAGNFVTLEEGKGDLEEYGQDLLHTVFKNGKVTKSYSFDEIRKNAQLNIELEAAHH
Procedure, shortened: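 Substrate-containing variant: 200 μM PRPP plus 2.5 mM ATP are added to 2 nM NAMPT and 2 nM probe, with a 16-hour incubation ahead of TR-FRET reading.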

[3] = test system: PC3 cells; test: NAMPT Cell Proliferation Assay; assay type: cell-based; settings: Homo sapiens, PC-3, 120 h, 5 days incubation, cell viability by Cell Titer Glo
Procedure, shortened: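 IC50 values derive from sigmoidal dose-response fits of percent inhibition of PC3 viability, measured by luminescence after 5 days of compound treatment. Cells (500/well, RPMI containing 10% heat-inactivated FBS) are allowed to attach overnight, and compounds are tested at 10-fold dilutions between 10 μM and 1×10^−5 μM.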

Sequence of NAMPT (human, recombinant, C-terminally His-tagged) (P43490 whole entry): as above

SMILES	pIC50 [1]	pIC50 [2]	pIC50 [3]
O=C(CC1CCCC1)Nc1ccc(C(=O)NCc2ccn3ccnc3c2)cc1F [Example 305, 4-[(cyclopentylacetyl)amino]-3-fluoro-N-(imidazo[1,2-a]pyridin-7-ylmethyl)benzamide]	6.31	9.35	5.93
O=C(NCc1ccn2ccnc2c1)c1ccc(C2CCN(C(=O)[C@H]3CCCO3)CC2)cc1 [Example 310, N-(imidazo[1,2-a]pyridin-7-ylmethyl)-4-{1-[(2R)-tetrahydrofuran-2-ylcarbonyl]piperidin-4-yl}benzamide]	6.25	9.66	7.61
CC(=O)N1CCC(c2ccc(C(=O)NCc3ccn4ccnc4c3)cc2)CC1 [Example 313, 4-(1-acetylpiperidin-4-yl)-N-(imidazo[1,2-a]pyridin-7-ylmethyl)benzamide]	6.27	9.44	6.09
CC(C)(C)OC(=O)N1CC=C(c2ccc(CC(=O)Nc3ccc4nccn4c3)cc2)CC1 [Example 314, tert-butyl 4-{4-[2-(imidazo[1,2-a]pyridin-6-ylamino)-2-oxoethyl]phenyl}-3,6-dihydropyridine-1(2H)-carboxylate]	5.70	9.24	6.40
O=C(NCc1ccn2ccnc2c1)c1cnc(C2=CCN(C(=O)C3CCOCC3)CC2)s1 [Example 319, N-(imidazo[1,2-a]pyridin-7-ylmethyl)-2-[1-(tetrahydro-2H-pyran-4-ylcarbonyl)-1,2,3,6-tetrahydropyridin-4-yl]-1,3-thiazole-5-carboxamide]	6.33	9.72	7.53
CC[C@H](C)C(=O)N1CC[C@H](Oc2ccc(C(=O)NCc3ccn4ccnc4c3)cc2)C1 [Example 321, N-(imidazo[1,2-a]pyridin-7-ylmethyl)-4-({(3S)-1-[(2S)-2-methylbutanoyl]pyrrolidin-3-yl}oxy)benzamide]	5.50	9.10	5.95
CC(C)(C)OC(=O)N1CCC(c2ccc(C(=O)Nc3ccn4ccnc4c3)cc2)CC1 [Example 322, tert-butyl 4-[4-(imidazo[1,2-a]pyridin-7-ylcarbamoyl)phenyl]piperidine-1-carboxylate]	5.22	7.47	< 5.00
CC(C)(C)OC(=O)N1CCC(c2ccc(C(=O)Nc3ccc4nccn4c3)cc2)CC1 [Example 323, tert-butyl 4-[4-(imidazo[1,2-a]pyridin-6-ylcarbamoyl)phenyl]piperidine-1-carboxylate]	5.85	9.63	6.76
CC(C)C(=O)NC1(c2ccc(C(=O)NCc3ccn4ccnc4c3)s2)COC1 [Example 324, N-(imidazo[1,2-a]pyridin-7-ylmethyl)-5-{3-[(2-methylpropanoyl)amino]oxetan-3-yl}thiophene-2-carboxamide]	6.01	9.12	7.26
O=C(CC1CCOC1)NC1(c2ccc(C(=O)NCc3ccn4ccnc4c3)s2)COC1 (stereo not drawn) [Example 326, N-(imidazo[1,2-a]pyridin-7-ylmethyl)-5-{3-[(tetrahydrofuran-3-ylacetyl)amino]oxetan-3-yl}thiophene-2-carboxamide]	5.63	8.89	6.34
CCCCC(=O)NC1(c2ccc(C(=O)NCc3ccn4ccnc4c3)s2)COC1 [Example 327, N-(imidazo[1,2-a]pyridin-7-ylmethyl)-5-[3-(pentanoylamino)oxetan-3-yl]thiophene-2-carboxamide]	5.88	9.25	6.20
O=C(NCc1ccn2ccnc2c1)Nc1ccc(O[C@@H]2CCN(C(=O)C3CC3)C2)cc1 [Example 331, 1-(4-{[(3R)-1-(cyclopropylcarbonyl)pyrrolidin-3-yl]oxy}phenyl)-3-(imidazo[1,2-a]pyridin-7-ylmethyl)urea]	6.42	9.38	6.64

Stronger by pIC50 [1], values ahead:

pIC50 [1]	pIC50 [2]	pIC50 [3]	SMILES
6.49	9.36	7.64	CC(C)C(=O)N1CC[C@@H](Oc2ccc(NC(=O)NCc3ccn4ccnc4c3)cc2)C1 [Example 330, 1-(imidazo[1,2-a]pyridin-7-ylmethyl)-3-(4-{[(3R)-1-(2-methylpropanoyl)pyrrolidin-3-yl]oxy}phenyl)urea]
6.50	9.55	6.27	O=C(NCc1ccn2ccnc2c1)c1ccc(-c2cnn(CCO)c2)s1 [Example 317, 5-[1-(2-hydroxyethyl)-1H-pyrazol-4-yl]-N-(imidazo[1,2-a]pyridin-7-ylmethyl)thiophene-2-carboxamide]
6.51	9.77	7.53	O=C(NCc1ccn2ccnc2c1)c1ccc(C2CCN(C(=O)[C@H]3CCOC3)CC2)cc1 [Example 308, N-(imidazo[1,2-a]pyridin-7-ylmethyl)-4-{1-[(3S)-tetrahydrofuran-3-ylcarbonyl]piperidin-4-yl}benzamide]
6.54	9.56	7.72	O=C(NCc1ccn2ccnc2c1)c1ccc(C2CCN(C(=O)[C@@H]3CCCO3)CC2)cc1 [Example 311, N-(imidazo[1,2-a]pyridin-7-ylmethyl)-4-{1-[(2S)-tetrahydrofuran-2-ylcarbonyl]piperidin-4-yl}benzamide]
6.64	9.49	6.14	CC(C)Cn1cc(-c2ccc(C(=O)NCc3ccn4ccnc4c3)cc2)cn1 [Example 315, N-(imidazo[1,2-a]pyridin-7-ylmethyl)-4-[1-(2-methylpropyl)-1H-pyrazol-4-yl]benzamide]
6.74	9.56	7.48	O=C(NC1(c2ccc(C(=O)NCc3ccn4ccnc4c3)s2)COC1)c1ccccc1 [Example 325, 5-[3-(benzoylamino)oxetan-3-yl]-N-(imidazo[1,2-a]pyridin-7-ylmethyl)thiophene-2-carboxamide]
6.74	9.53	7.19	O=C(NCc1ccn2ccnc2c1)Nc1ccc(O[C@@H]2CCN(C(=O)CC3CC3)C2)cc1 [Example 332, 1-(4-{[(3R)-1-(cyclopropylacetyl)pyrrolidin-3-yl]oxy}phenyl)-3-(imidazo[1,2-a]pyridin-7-ylmethyl)urea]
6.78	9.61	7.19	O=C(NCc1ccn2ccnc2c1)c1ccc(C2CCN(C(=O)CC3CC3)CC2)cc1 [Example 312, 4-[1-(cyclopropylacetyl)piperidin-4-yl]-N-(imidazo[1,2-a]pyridin-7-ylmethyl)benzamide]
6.84	9.77	7.66	CC(C)C(=O)N1CC=C(c2ccc(NC(=O)NCc3ccn4ccnc4c3)c(F)c2)CC1 [Example 306, 1-{2-fluoro-4-[1-(2-methylpropanoyl)-1,2,3,6-tetrahydropyridin-4-yl]phenyl}-3-(imidazo[1,2-a]pyridin-7-ylmethyl)urea]
6.93	9.77	7.26	O=C(NCc1ccn2ccnc2c1)c1ccc(C2CCN(C(=O)[C@@H]3CCOC3)CC2)cc1 [Example 309, N-(imidazo[1,2-a]pyridin-7-ylmethyl)-4-{1-[(3R)-tetrahydrofuran-3-ylcarbonyl]piperidin-4-yl}benzamide]
7.02	9.68	6.77	CC(C)C(=O)N1CC=C(c2ncc(C(=O)NCc3ccn4ccnc4c3)s2)CC1 [Example 320, N-(imidazo[1,2-a]pyridin-7-ylmethyl)-2-[1-(2-methylpropanoyl)-1,2,3,6-tetrahydropyridin-4-yl]-1,3-thiazole-5-carboxamide]
7.17	9.77	8.05	CC[C@H](C)C(=O)N1CC[C@H](Oc2ccc(NC(=O)NCc3ccn4ccnc4c3)cc2)C1 [Example 328, 1-(imidazo[1,2-a]pyridin-7-ylmethyl)-3-[4-({(3S)-1-[(2S)-2-methylbutanoyl]pyrrolidin-3-yl]oxy)phenyl}urea]
7.18	9.77	7.73	C[C@@H](O)Cn1cc(-c2ccc(C(=O)NCc3ccn4ccnc4c3)s2)cn1 [Example 304, 5-{1-[(2R)-2-hydroxypropyl]-1H-pyrazol-4-yl}-N-(imidazo[1,2-a]pyridin-7-ylmethyl)thiophene-2-carboxamide]
7.29	9.77	7.87	O=C(NCc1ccn2ccnc2c1)Nc1ccc(C2=CCN(C(=O)C3CCCO3)CC2)cc1F (stereo not drawn) [Example 307, 1-{2-fluoro-4-[1-(tetrahydrofuran-2-ylcarbonyl)-1,2,3,6-tetrahydropyridin-4-yl]phenyl}-3-(imidazo[1,2-a]pyridin-7-ylmethyl)urea]
7.38	9.77	8.20	O=C(NCc1ccn2ccnc2c1)c1ccc(-c2cnn(CC3COCCO3)c2)s1 (stereo not drawn) [Example 316, 5-[1-(1,4-dioxan-2-ylmethyl)-1H-pyrazol-4-yl]-N-(imidazo[1,2-a]pyridin-7-ylmethyl)thiophene-2-carboxamide]
7.51	9.77	7.91	O=C(NCc1ccn2ccnc2c1)Nc1ccc(O[C@@H]2CCN(C(=O)c3ccccc3)C2)cc1 [Example 329, 1-(4-{[(3R)-1-benzoylpyrrolidin-3-yl]oxy}phenyl)-3-(imidazo[1,2-a]pyridin-7-ylmethyl)urea]
